Data reported in patent US11629171B2, “Beta-hairpin peptidomimetics” (POLYPHOR AG, priority 2017, dated 2023).
Converted amounts (≈) assume the structure as drawn. Where a SMILES comes first, the peptide text is derived from it. Bridges are numbered along the chain shown (N, C = ends). Roman numbers before positions name the chains, in order. [ ]: non-standard residue; d: D form. The star is where a group is joined. Thr(ol) = C[C@@H](O)[C@H](N)CO; Pen = CC(C)(S)[C@H](N)C(=O)O; Tle = CC(C)(C)[C@H](N)C(=O)O; NMeV = CN[C@H](C(=O)O)C(C)C; Hiv = CC(C)[C@H](O)C(=O)O; dDab = NCC[C@@H](N)C(=O)O; hSer = N[C@@H](CCO)C(=O)O; Nle = CCCC[C@H](N)C(=O)O; Orn = NCCC[C@H](N)C(=O)O; Dab = NCC[C@H](N)C(=O)O; Dap = NC[C@H](N)C(=O)O; NHCH2CH2OH = OCCN*

Experiments:
Assay type in all cases: cell-based
[1] = tested on: Acinetobacter baumannii 872842; conditions: 872842
Summary of the method: (§1)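 Two-fold peptide dilutions in polysorbate 80-containing (0.002% final) cation-adjusted Mueller-Hinton II broth were inoculated with about 10^6 CFU/mL. The MIC was taken as the lowest concentration, in μg/mL, preventing visible growth at 18-20 hours and 35° C.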

[2] = tested on: Acinetobacter baumannii DSM 30008; conditions: DSM 30008
Summary of the method: as §1

[3] = tested on: Enterobacter cloacae 848840; conditions: 848840
Summary of the method: as §1

Escherichia coli 926415 = conditions: 926415
Summary of the method: as §1

[4] = tested on: Escherichia coli ATCC 25922; conditions: ATCC 25922
Summary of the method: as §1

[5] = tested on: Klebsiella pneumoniae 968733; conditions: 968733
Summary of the method: as §1

[6] = tested on: Klebsiella pneumoniae SSI #3010; conditions: SSI #3010
Summary of the method: as §1

[7] = tested on: Pseudomonas aeruginosa ATCC 27853; conditions: ATCC 27853
Summary of the method: as §1

[8] = tested on: human red blood cells (hRBC); experiment: Hemolysis; conditions: red cells of human, 1 h, 200
Summary of the method: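 First, fresh human erythrocytes are washed in PBS; next, they are incubated at 20% (v/v) with compound at 200 μg/mL for 1 h at 37° C. Finally, centrifuged supernatants are diluted and OD540 is taken relative to the Triton X-100 lysis control.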

Compound | MIC [1] | MIC [2] | MIC [3] | MIC (Escherichia coli 926415) | MIC [4] | MIC [5] | MIC [6] | MIC [7] | Hemolysis at 200 μg/mL [8] | Acinetobacter baumannii DSM 30008 MIC [2] | Escherichia coli ATCC 25922 MIC [4] | Klebsiella pneumoniae SSI #3010 MIC [6] | Pseudomonas aeruginosa ATCC 27853 MIC [7]
CC(C)C[C@@H]1NC(=O)[C@@H](CC(C)C)NC(=O)[C@H](CCN)NC(=O)[C@@H](NC(=O)[C@H](CN)NC(=O)[C@@H](NC(=O)[C@H](CCN)NC(=O)CC[C@@H]2NC(=O)[C@H](CCCN)NC(=O)[C@H](CCN)NC(=O)[C@H](Cc3ccc(O)cc3)NC(=O)[C@@H](NC(=O)[C@@H](O)C(C)C)CSSC[C@@H](C(=O)N[C@H](C(N)=O)[C@@H](C)O)NC(=O)[C@H](C(C)(C)C)NC(=O)[C@H](CO)NC(=O)[C@H](Cc3c[nH]c4ccccc34)NC(=O)[C@H]([C@@H](C)O)NC2=O)[C@@H](C)O)CCNC(=O)[C@H]([C@@H](C)O)NC(=O)[C@H](CCN)NC(=O)[C@H](CCN)NC1=O [Ex. 160] (I: H-[Hiv]CY[Dab][Orn]ETWS[Tle]CT-NH2 / II: [Dab]T[Dap][Dab][Dab][dL]L[Dab][Dab]T; disulfide I:2-I:11; amide I:6-II:N; lactam II:4-II:C) | 0.5 µg/mL (≈ 0.207 µM) | 0.125 µg/mL (≈ 0.0518 µM) | 2 µg/mL (≈ 0.829 µM) | 0.5 µg/mL (≈ 0.207 µM) | 0.125 µg/mL (≈ 0.0518 µM) | 0.5 µg/mL (≈ 0.207 µM) | 0.25 µg/mL (≈ 0.104 µM) | 0.25 µg/mL (≈ 0.104 µM) | <1% |  |  |  | 
CC(=O)N[C@@H](CO)C(=O)N[C@H]1CSSC[C@@H](C(=O)N[C@H](C(N)=O)C(C)C)NC(=O)[C@H](C(C)C)NC(=O)[C@H](CO)NC(=O)[C@H](Cc2c[nH]c3ccccc23)NC(=O)[C@H](CCO)NC(=O)[C@@H](CCN)NC(=O)[C@H](CCC(=O)N[C@@H](CCN)C(=O)N[C@H](C(=O)N[C@@H](CCN)C(=O)N[C@H]2CCNC(=O)[C@H]([C@@H](C)O)NC(=O)[C@H](CCN)NC(=O)[C@H](CCN)NC(=O)[C@H](CC(C)C)NC(=O)[C@@H](CC(C)C)NC(=O)[C@H](CCN)NC2=O)[C@@H](C)O)NC(=O)[C@H](CCN)NC(=O)[C@H](Cc2ccc(O)cc2)NC1=O [Ex. 62] (I: Ac-SCY[Dab]E[dDab][hSer]WSVCV-NH2 / II: [Dab]T[Dab][Dab][Dab][dL]L[Dab][Dab]T; disulfide I:2-I:11; amide I:5-II:N; lactam II:4-II:C) | 0.125 µg/mL (≈ 0.0515 µM) | 0.0625 µg/mL (≈ 0.0258 µM) | 4 µg/mL (≈ 1.65 µM) | 0.25 µg/mL (≈ 0.103 µM) | 0.125 µg/mL (≈ 0.0515 µM) | 0.125 µg/mL (≈ 0.0515 µM) | 0.0625 µg/mL (≈ 0.0258 µM) | 0.125 µg/mL (≈ 0.0515 µM) | <1% |  |  |  | 
CC(C)C[C@@H]1NC(=O)[C@@H](CC(C)C)NC(=O)[C@H](CCN)NC(=O)[C@@H](NC(=O)[C@H](CCN)NC(=O)[C@@H](NC(=O)[C@H](CCN)NC(=O)CC[C@@H]2NC(=O)[C@H](CCN)NC(=O)[C@H](Cc3ccc(O)cc3)NC(=O)[C@@H](NC(=O)[C@@H](O)C(C)C)CSSC[C@@H](C(=O)NCCO)NC(=O)[C@H](C(C)(C)C)NC(=O)[C@H](CO)NC(=O)[C@H](Cc3c[nH]c4ccccc34)NC(=O)[C@H](CCO)NC(=O)[C@@H](CCN)NC2=O)[C@@H](C)O)CCNC(=O)[C@H]([C@@H](C)O)NC(=O)[C@H](CCN)NC(=O)[C@H](CCN)NC1=O [Ex. 72] (I: H-[Hiv]CY[Dab]E[dDab][hSer]WS[Tle]C-NHCH2CH2OH / II: [Dab]T[Dab][Dab][Dab][dL]L[Dab][Dab]T; disulfide I:2-I:11; amide I:5-II:N; lactam II:4-II:C) | 0.0625 µg/mL (≈ 0.0265 µM) | 0.0625 µg/mL (≈ 0.0265 µM) | 0.25 µg/mL (≈ 0.106 µM) | 0.125 µg/mL (≈ 0.053 µM) | 0.0625 µg/mL (≈ 0.0265 µM) | 0.125 µg/mL (≈ 0.053 µM) | 0.125 µg/mL (≈ 0.053 µM) | 0.125 µg/mL (≈ 0.053 µM) | <1% |  |  |  | 
CCCC[C@@H]1NC(=O)[C@H](CO)NC(=O)[C@H](Cc2c[nH]c3ccccc23)NC(=O)[C@H](CO)NC(=O)[C@@H](CCN)NC(=O)[C@H](CCC(=O)N[C@@H](CCN)C(=O)N[C@H](C(=O)N[C@@H](CN)C(=O)N[C@H]2CCNC(=O)[C@H]([C@@H](C)O)NC(=O)[C@H](CCN)NC(=O)[C@H](CCN)NC(=O)[C@H](CC(C)C)NC(=O)[C@@H](CC(C)C)NC(=O)[C@H](CCN)NC2=O)[C@@H](C)O)NC(=O)[C@H](CCN)NC(=O)[C@H](Cc2ccc(O)cc2)NC(=O)[C@@H](NC(=O)[C@@H](NC(C)=O)C(C)C)CSSC[C@@H](C(=O)N[C@@H](CO)C(N)=O)NC1=O [Ex. 316] (I: Ac-VCY[Dab]E[dDab]SWS[Nle]CS-NH2 / II: [Dab]T[Dap][Dab][Dab][dL]L[Dab][Dab]T; disulfide I:2-I:11; amide I:5-II:N; lactam II:4-II:C) | 0.03125 µg/mL (≈ 0.013 µM) |  | 0.0625 µg/mL (≈ 0.0259 µM) | 0.0625 µg/mL (≈ 0.0259 µM) |  | 0.0625 µg/mL (≈ 0.0259 µM) |  |  | <1% | 0.01562 µg/mL | 0.01562 µg/mL | 0.0625 µg/mL | 0.0625 µg/mL
CN[C@H](C(=O)N[C@H]1CSSC[C@@H](C(N)=O)NC(=O)[C@H](C(C)(C)C)NC(=O)[C@H](CO)NC(=O)[C@H](Cc2c[nH]c3ccccc23)NC(=O)[C@H](CCN)NC(=O)[C@@H](CCN)NC(=O)[C@H](CCC(=O)N[C@@H](CCN)C(=O)N[C@H](C(=O)N[C@@H](CN)C(=O)N[C@H]2CCNC(=O)[C@H]([C@@H](C)O)NC(=O)[C@H](CCN)NC(=O)[C@H](CCN)NC(=O)[C@H](CC(C)C)NC(=O)[C@@H](CC(C)C)NC(=O)[C@H](CCN)NC2=O)[C@@H](C)O)NC(=O)[C@H](CN)NC(=O)[C@H](Cc2ccc(O)cc2)NC1=O)C(C)C [Example 9] (I: H-[NMeV]CY[Dap]E[dDab][Dab]WS[Tle]C-NH2 / II: [Dab]T[Dap][Dab][Dab][dL]L[Dab][Dab]T; disulfide I:2-I:11; amide I:5-II:N; lactam II:4-II:C) | 0.125 µg/mL (≈ 0.0544 µM) | 0.125 µg/mL (≈ 0.0544 µM) | 0.25 µg/mL (≈ 0.109 µM) | 1 µg/mL (≈ 0.435 µM) | 0.125 µg/mL (≈ 0.0544 µM) | 0.5 µg/mL (≈ 0.218 µM) | 0.125 µg/mL (≈ 0.0544 µM) | 0.125 µg/mL (≈ 0.0544 µM) | <1% |  |  |  | 
CC(C)C[C@@H]1NC(=O)[C@@H](CC(C)C)NC(=O)[C@H](CCN)NC(=O)[C@@H](NC(=O)[C@H](CCN)NC(=O)[C@@H](NC(=O)[C@H](CCN)NC(=O)CC[C@@H]2NC(=O)[C@H](CO)NC(=O)[C@H](Cc3ccc(O)cc3)NC(=O)[C@@H](NC(=O)[C@@H](O)C(C)C)CSSC[C@@H](C(=O)N[C@H](CO)[C@@H](C)O)NC(=O)[C@H](C(C)(C)C)NC(=O)[C@H](CO)NC(=O)[C@H](Cc3c[nH]c4ccccc34)NC(=O)[C@H](CCO)NC(=O)[C@@H](CCN)NC2=O)[C@@H](C)O)CCNC(=O)[C@H]([C@@H](C)O)NC(=O)[C@H](CCN)NC(=O)[C@H](CCN)NC1=O [Ex. 88] (I: H-[Hiv]CYSE[dDab][hSer]WS[Tle]C[Thr(ol)] / II: [Dab]T[Dab][Dab][Dab][dL]L[Dab][Dab]T; disulfide I:2-I:11; amide I:5-II:N; lactam II:4-II:C) | 0.125 µg/mL (≈ 0.0523 µM) | 0.03125 µg/mL (≈ 0.0131 µM) | 0.125 µg/mL (≈ 0.0523 µM) | 0.125 µg/mL (≈ 0.0523 µM) | 0.0625 µg/mL (≈ 0.0262 µM) | 0.125 µg/mL (≈ 0.0523 µM) | 0.125 µg/mL (≈ 0.0523 µM) | 0.125 µg/mL (≈ 0.0523 µM) | <1% |  |  |  | 
CC(=O)N[C@H](C(=O)N[C@H](C(=O)N[C@@H](Cc1ccc(O)cc1)C(=O)N[C@H]1CSSC(C)(C)[C@@H](C(=O)N[C@H](C(=O)N[C@@H](CO)C(=O)N[C@H](C(N)=O)[C@@H](C)O)C(C)(C)C)NC(=O)[C@H](Cc2c[nH]c3ccccc23)NC(=O)[C@H](CCN)NC(=O)[C@@H](CCN)NC(=O)[C@H](CCC(=O)N[C@@H](CCN)C(=O)N[C@H](C(=O)N[C@@H](CN)C(=O)N[C@H]2CCNC(=O)[C@H]([C@@H](C)O)NC(=O)[C@H](CCN)NC(=O)[C@H](CCN)NC(=O)[C@H]([C@@H](C)O)NC(=O)[C@@H](CC(C)C)NC(=O)[C@H](CCN)NC2=O)[C@@H](C)O)NC1=O)[C@@H](C)O)C(C)C [Ex. 224] (I: Ac-VTYCE[dDab][Dab]W[Pen][Tle]ST-NH2 / II: [Dab]T[Dap][Dab][Dab][dL]T[Dab][Dab]T; disulfide I:4-I:9; amide I:5-II:N; lactam II:4-II:C) | 0.0625 µg/mL (≈ 0.0254 µM) | 0.0625 µg/mL (≈ 0.0254 µM) | 0.125 µg/mL (≈ 0.0509 µM) | 0.125 µg/mL (≈ 0.0509 µM) | 0.03125 µg/mL (≈ 0.0127 µM) | 0.25 µg/mL (≈ 0.102 µM) | 0.125 µg/mL (≈ 0.0509 µM) | 0.125 µg/mL (≈ 0.0509 µM) | 1% |  |  |  | 
